These results are taken from article PMC6545544 (ACS Omega, 2019).

A value given as a limit tells only on which side of the number the result lay.

In assay [1] the test system is HIV-1 protease with G48V. The note with it: thermodynamic integration and MM-PBSA; cited from earlier work.
Assay [2] concerns PR with 22 mutations in addition to inactivating D25N mutation. The settings on record: PR with 22 mutations in addition to D25N; cited from earlier work.
A further assay has as its target PR with I54V. The settings on record: cited from earlier work.
The next assay deals with PR with M46L. The note with it: cited from earlier work.
Assay [3] has as its system PR^S17. The note with it: PR^S17, flap twisting by G48V implicated; cited from earlier work.
For assay [4], the system named is PR bearing the single V82A mutation. The settings on record: kinetic studies; cited from earlier work.
The next assay addresses PR with G48V. The settings on record: cited from earlier work.
Assay [5] relates to PR^S17. The settings on record: PR^S17, predicted from genotype–phenotype data; cited from earlier work.
Assay [6] relates to HIV-1 protease with G48V. The settings on record: flap mutation G48V; cited from earlier work.
Assay [7] has as its target PR^S17 (HIV-1 protease variant with 17 mutations). The assay is described as follows: Kinetic inhibition of PR^S17. The settings on record: PR^S17 compared to PR. The class given is biochemical.
The target of the next assay is PR^V82A. The note with it: read-out: Inhibition constant (Ki), determined previously; cited from earlier work.
For assay [8], the target named is PR (wild-type HIV-1 protease). The settings on record: read-out: Inhibition constant (Ki), determined previously; cited from earlier work.
Assay [9] concerns the target HIV-1 protease variant PR^S17 (HIV-1). The assay is described as follows: enzyme inhibition kinetics.

`CC(C)CN(C[C@@H](O)[C@H](Cc1ccccc1)NC(=O)O[C@H]1CCOC1)S(=O)(=O)c1ccc(N)cc1` [APV, amprenavir]: the “effect of G48V on van der Waals interactions” value in the assay with HIV-1 protease with G48V [1] is “strengthens van der Waals interactions”.

`CC(C)CN(C[C@@H](O)[C@H](Cc1ccccc1)NC(=O)O[C@H]1CO[C@H]2OCC[C@H]21)S(=O)(=O)c1ccc(N)cc1` [DRV, darunavir]: the “resistance (fold)” value in assay [2] is given as above 175 fold. In addition, the “inhibition constant (Ki) relative to wild-type PR” value at PR with I54V, at PR with M46L and at PR with G48V was “worse inhibition constants” in each case. In addition, in the assay on PR^S17 [3], the “cross-resistance of PR^S17” value is recorded as “cross-resistance”. Besides, in assay [4], the “affinity of PR with V82A for inhibitor” value is on record as “significantly worse affinity”.

As to `COC(=O)N[C@H](C(=O)N[C@@H](Cc1ccccc1)[C@@H](O)CN(Cc1ccc(-c2ccccn2)cc1)NC(=O)[C@@H](NC(=O)OC)C(C)(C)C)C(C)(C)C` [atazanavir], the predicted resistance result with PR^S17 [5] is “high-level resistance”.

Turning to `CC(C)(C)NC(=O)[C@@H]1CN(Cc2cccnc2)CCN1C[C@@H](O)C[C@@H](Cc1ccccc1)C(=O)N[C@H]1c2ccccc2C[C@H]1O` [indinavir], the predicted resistance result in the assay with PR^S17 [5] is “high-level resistance”. Also, the “affinity of PR with V82A for inhibitor” value in [4] is “significantly worse affinity”.

On to `Cc1cccc(C)c1OCC(=O)N[C@@H](Cc1ccccc1)[C@@H](O)C[C@H](Cc1ccccc1)NC(=O)[C@H](C(C)C)N1CCCNC1=O` [lopinavir], for which, in the assay on PR^S17 [5], the predicted resistance result is recorded as “high-level resistance”.

Turning to `Cc1c(O)cccc1C(=O)N[C@@H](CSc1ccccc1)[C@H](O)CN1C[C@H]2CCCC[C@H]2C[C@H]1C(=O)NC(C)(C)C` [nelfinavir], the predicted resistance entry with PR^S17 [5] was “high-level resistance”. Moreover, in [4], the “affinity of PR with V82A for inhibitor” value is on record as “significantly worse affinity”.

Take `CC(C)c1nc(CN(C)C(=O)N[C@H](C(=O)N[C@@H](Cc2ccccc2)C[C@H](O)[C@H](Cc2ccccc2)NC(=O)OCc2cncs2)C(C)C)cs1` [ritonavir]: in the assay on PR^S17 [5], the predicted resistance result was “high-level resistance”. Further, the “affinity of PR with V82A for inhibitor” value in assay [4] is “significantly worse affinity”.

On to `CC(C)(C)NC(=O)[C@@H]1C[C@@H]2CCCC[C@@H]2CN1C[C@@H](O)[C@H](Cc1ccccc1)NC(=O)[C@H](CC(N)=O)NC(=O)c1ccc2ccccc2n1` [saquinavir], for which the “inhibition constant (Ki) relative to wild-type PR” value on PR with I54V, at PR with M46L and on PR with G48V was “worse inhibition constants” throughout. The “resistance conferred by G48V” value in the assay on HIV-1 protease with G48V [6] is “high level of resistance”. For the same compound, in the assay on PR^S17 [5], the predicted resistance entry was “high-level resistance”.

Consider Ace-T-I-Nle-r-Nle-Q-R [p2-NC], for which, in [7], the “Ki relative to the wild-type PR (fold better inhibition)” value is recorded as 4.2. The values for the Ki (on PR^V82A; in assay [8]) were 530 nM and 2170 nM, respectively.

Regarding R-V-L-r-F-E-A-Nle [CA-p2], the Ki at PR^V82A is 24 nM; in assay [8] it was 75 nM.

“substrate analogue CA-p2 (R-V-L-r-F-E-A-Nle) (peptide)” yielded a Ki in [9] of 22 nM.

The compound “substrate analogue p2-NC (Ace-T-I-Nle-r-Nle-Q-R) (peptide)” yielded a Ki in assay [9] of 514 nM.

As a reminder, the Ki is a dissociation constant, usually derived from enzyme kinetics or from competition with a known ligand.
